Data taken from US12060408B2, “Screening assays, modulators and modulation of activation of Receptor for Advanced Glycation End-products (RAGE)” (Monash University, priority 2017, dated 2024).
Ends that are not written are not given here.

What was measured:
CCR2 [1] = molecular target: T1, CCR2 (Mus musculus, UniProt P51683); conditions: mouse models of multiple sclerosis, renal ischemia-reperfusion injury, ureteric obstruction, diabetic nephropathy; rat model of arthritis; cited from earlier work
T1 construct: host or cells: mouse models (and one rat model) in vivo
T1 sequence (P51683 whole entry, the tested form may be a part): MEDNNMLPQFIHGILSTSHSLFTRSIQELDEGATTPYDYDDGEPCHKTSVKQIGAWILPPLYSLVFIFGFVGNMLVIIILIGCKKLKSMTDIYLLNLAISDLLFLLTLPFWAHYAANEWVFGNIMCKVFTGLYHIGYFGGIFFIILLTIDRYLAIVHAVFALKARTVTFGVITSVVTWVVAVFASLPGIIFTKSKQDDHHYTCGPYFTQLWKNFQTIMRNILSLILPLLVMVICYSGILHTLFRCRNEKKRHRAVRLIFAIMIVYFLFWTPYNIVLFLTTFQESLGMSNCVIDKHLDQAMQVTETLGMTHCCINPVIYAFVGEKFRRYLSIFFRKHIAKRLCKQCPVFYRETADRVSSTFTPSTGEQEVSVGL

CCR2 [2] = molecular target: T2, CCR2 (Homo sapiens, UniProt P41597); assay: Receptor-HIT BRET, β-arrestin2/Venus with RAGE/Rluc8 and CCR2; format: cell-based
T2 construct: expressed in transfected cells; host or cells: HEK293FT, transient
T2 sequence (P41597 whole entry): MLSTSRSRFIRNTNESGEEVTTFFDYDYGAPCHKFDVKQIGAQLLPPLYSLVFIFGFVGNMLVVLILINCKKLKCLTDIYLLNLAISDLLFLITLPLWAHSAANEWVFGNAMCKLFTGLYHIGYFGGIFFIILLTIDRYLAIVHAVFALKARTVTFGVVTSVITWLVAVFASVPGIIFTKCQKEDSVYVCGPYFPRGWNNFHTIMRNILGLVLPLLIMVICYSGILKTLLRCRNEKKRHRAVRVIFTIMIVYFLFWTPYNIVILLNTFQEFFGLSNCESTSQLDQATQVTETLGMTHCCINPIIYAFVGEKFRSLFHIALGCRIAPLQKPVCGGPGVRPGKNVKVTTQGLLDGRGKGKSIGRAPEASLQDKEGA
T2 sequence (P32121 whole entry partner): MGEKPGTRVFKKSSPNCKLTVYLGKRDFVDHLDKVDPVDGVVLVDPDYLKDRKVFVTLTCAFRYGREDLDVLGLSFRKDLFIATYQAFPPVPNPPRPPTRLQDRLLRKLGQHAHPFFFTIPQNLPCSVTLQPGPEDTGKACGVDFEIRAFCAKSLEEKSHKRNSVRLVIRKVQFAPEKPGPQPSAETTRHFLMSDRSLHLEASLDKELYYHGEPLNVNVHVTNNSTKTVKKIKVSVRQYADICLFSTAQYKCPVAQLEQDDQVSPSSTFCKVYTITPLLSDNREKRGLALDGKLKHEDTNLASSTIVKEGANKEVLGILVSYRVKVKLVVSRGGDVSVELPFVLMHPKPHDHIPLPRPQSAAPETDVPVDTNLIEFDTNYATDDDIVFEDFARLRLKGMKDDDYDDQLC
Excerpt: (§1) Bioluminescence Resonance Energy Transfer (BRET)
(§2) BRET is an established technology for studying protein-protein proximity in live cells, particularly involving GPCRs (Pfleger and Eidne, 2006). One protein of interest was linked to a bioluminescent donor enzyme, Rluc8, a variant of Renilla luciferase, and a second linked to an acceptor fluorophore, Venus, a variant of green fluorescent protein. If in close proximity (<10 nm), energy resulting from the rapid oxidation of a cell-permeable coelenterazine substrate by the donor can transfer to the acceptor, which in turn fluoresces at a longer characteristic wavelength.
(§3) Plasmids were transiently co-expressed in human embryonic kidney (HEK) 293FT cells and BRET measurements taken at 37° C. using a POLARstar Omega or LUMIstar plate reader (BMG Labtech, Mornington, Victoria, Australia) with 460-490 nm (‘donor emission’) and 520-550 nm (‘acceptor emission’) filters, or a VICTOR Light plate reader (Perkin Elmer, Glen Waverley, Victoria, Australia) with 400-475 nm (‘donor emission’) and 520-540 nm (‘acceptor emission’) filters, or a CLARIOstar plate reader (BMG Labtech, Mornington, Victoria, Australia) with 420-480 nm (‘donor emission’) and 520-620 nm (‘acceptor emission’) filters. […]
(§4) For BRET kinetic assays, the final pre-treatment reading is presented at the zero time point (time of ligand/vehicle addition). […]

orexin receptor 1 (OxR1) = molecular target: T3, orexin receptor 1 (OxR1) (Homo sapiens, UniProt O43613); assay: Receptor-HIT BRET, β-arrestin2/Venus with RAGE/Rluc8 and orexin receptor 1; format: cell-based
T3 construct: expressed in transfected cells; host or cells: HEK293FT, transient
T3 sequence (O43613 whole entry): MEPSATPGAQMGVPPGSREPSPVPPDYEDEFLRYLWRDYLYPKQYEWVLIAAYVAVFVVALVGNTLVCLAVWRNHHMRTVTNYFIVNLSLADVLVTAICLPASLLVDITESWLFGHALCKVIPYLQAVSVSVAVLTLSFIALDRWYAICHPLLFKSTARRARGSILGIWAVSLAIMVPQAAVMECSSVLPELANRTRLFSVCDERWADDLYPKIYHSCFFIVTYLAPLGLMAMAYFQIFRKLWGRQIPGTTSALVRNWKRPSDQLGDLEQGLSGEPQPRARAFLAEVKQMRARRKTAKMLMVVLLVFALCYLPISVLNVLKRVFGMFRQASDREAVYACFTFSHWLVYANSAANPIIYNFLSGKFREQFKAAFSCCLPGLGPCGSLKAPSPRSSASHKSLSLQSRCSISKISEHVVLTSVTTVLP
T3 sequence (P32121 whole entry partner): as the sequence (P32121 whole entry partner) above
Excerpt: as §1, §2, §3, §4

[3] = test system: RAGE ligand-independent activation of RAGE by activated AT1R; assay: Ang II-induced NFκB activation (p65 gene expression, SEAP reporter) in AT1R-CHO cells with RAGE constructs; format: cell-based, human; conditions: summary statement, cell system not given
Protocol: (§5) Generation of Transgenic Chinese Hamster Ovary Cells
(§6) 100 ng of AT1R-Rluc8 construct was transfected into CHO cells using Lipofectamine 2000 (Thermo). Stable transfectants were selected using G418. AT1R—CHO were then transiently transfected with RAGE constructs using Lipofectamine 2000 (Invitrogen) and incubated for 16 h. The Homo sapiens AGER transcript variant 1 coding sequence (NM_001136) was synthesised and cloned between the NheI and XbaI sites of pCIneo (Promega) to generate the vector pCIneo-RAGE. This plasmid was then used to generate a library of mutant AGER clones (NP_001127). Primers 1-RAGE-SP-5′ and mCherry-XhoI-NotI-3′ were used to amplify the coding sequence of mCherry from the vector pmCherry-C1. The resultant PCR product was then used as template for a second PCR using primers 2-RAGE-SP-5′ and mCherry-XhoI-NotI-3′. The PCR product generated was digested with NheI and NotI and inserted between the NheI and NotI sites of pCIneo to generate pCIneo-SP-mCherry. The sequence of the insert was confirmed by DNA sequencing (Micromon, Monash University). […]
(§7) Cellular Expression of Pro-Inflammatory Markers and Mediators by Quantitative Real-Time PCR
(§8) After 2 hours of exposure to Ang II (1 μM) or the RAGE ligand, S100A8/A9 (5 ng/ml) cells were placed in Trizol, mRNA extracted and cDNA synthesized. Changes in the gene expression of the NFκB subunit, p65 (RelA) or NFκB-activated target genes (e.g ICAM-1, VCAM-1) were estimated by quantitative real-time RT-PCR, performed using the TaqMan system based on real-time detection of accumulated fluorescence (ABI Prism 7700, Perkin-Elmer Inc, PE Biosystems, Foster City, CA, USA). Gene expression was normalized to 18S mRNA and reported as fold change compared to the level of expression in untreated control mice/cells, which were given an arbitrary value of 1.
Oligopeptides (Cherry-TAT (control), mCherry-TAT-RAGE362-404 and mCherry-S391A-TAT-RAGE362-404 were generated by transformation of the Escherichia coli strain ClearColi BL21 (DE3; Lucigen). A single transformed colony was inoculated into 50 ml 2YT medium containing 100 μg/ml ampicillin and the culture was grown overnight at 37° C. with shaking at 250 rev/min. 10 ml overnight culture was used to inoculate 1 litre 2YT medium containing 100 μg/ml ampicillin and the culture was grown at 37° C. with shaking at 250 rev/min. When the cultures reached an OD600 of 0.8, the temperature was shifted to 15° C. for 30 min after which protein expression was induced by the addition of 1 mM isopropyl β-D-1-thiogalacto-pyranoside (IPTG). Following the addition of IPTG the cultures were grown for ˜16 h at 15° C. with shaking at 250 rev/min. Cells were harvested by centrifugation (3500 g, 4° C., 20 min) and resuspended in ice-cold lysis buffer (50 mM Tris pH 7.4, 300 mM NaCl, 10 mM imidazole and 5 mM beta-mercaptoethanol). The resuspended cells were sonicated and insoluble material was pelleted by centrifugation (13 000 g, 4° C., 30 min). The supernatant was filtered (0.2 μm) and applied onto a gravity-flow column with a 1 ml Ni-NTA Agarose resin bed volume (Qiagen) pre-equilibrated with lysis buffer. After the supernatant was passed over the resin, the column was washed with 100 ml of wash buffer (20 mM imidazole, 50 mM Tris pH 7.4, 150 mM NaCl, 5 mM beta-mercaptoethanol). His-tagged TAT-mCherry and TAT-mCherry-RAGE peptides were eluted from the resin using elution buffer (250 mM imidazole, 50 mM Tris pH 7.4, 150 mM NaCl, 5 mM beta-mercaptoethanol). […]

[4] = test system: RAGE ligand-dependent activation of RAGE; assay: S100A8/A9-induced NFκB activation (p65 gene expression) in CHO cells expressing RAGE constructs; format: cell-based, human; conditions: summary statement, cell system not given
Protocol: as §5, §6, §7, §8
To measure the induction of NFκB activity by 1 μM Ang II, or 5 ng/ml of the RAGE-ligand S100A8/A9 as a signalling control, AT1R—CHO cells were transfected with 0.4 μg of plasmids encoding NFκB-SEAP or β-galactosidase (β-Gal) using Lipofectamine 2000 (Invitrogen) as per manufacturer's instructions. After 24 hours, cells transfected with each plasmid combination were then treated with Ang II (1 μM) or left untreated and incubated for 4 hours before cell supernatants and cell lysates were collected. Cell supernatants were analysed using a chemiluminescent SEAP reporter gene assay (Roche Applied Science) to detect SEAP production after treatment. To control for transfection efficiency, cell lysates were assayed for β-Gal using a commercially available kit (Promega).

murine SVEC = assay: Induction of ICAM-1 by Ang II in murine SVEC transfected with RAGE constructs (RT-PCR); format: cell-based, mouse; conditions: transfected construct (FIG. 12)
Excerpt: FIG. 12A. The effect of transfection of murine SVEC with RAGE or RAGE mutants on the induction of ICAM-1 by Ang II compared to vector alone (pc-Neo) as a control, as measured by RT-PCR. Data are mean±SEM; n=6-8 per group. * vs untreated control, # vs neo+Ang II, p<0.05.
FIG. 12B. The effect of transfection with truncated RAGE mutants on the induction of ICAM-1 by Ang II in murine SVEC to identify the smallest fragments with inhibitory activity. Data are mean±SEM; n=6-8 per group, * vs no treatment control, p<0.05.
FIG. 12D. The effect of transfection with single site-specific alanine or lysine mutants of RAGE370-390 on the induction of ICAM-1 by Ang II in murine SVEC. Data are mean±SEM; n=6-8 per group, * vs no treatment control, p<0.05.
as §7
as §8, with “Gene expression was normalized to 18S mRNA and reported as fold change compared to the level of expression in untreated control mice/cells, which were given an arbitrary value of 1.” left out

RAGE = assay: Ang II-induced pro-inflammatory signalling (p65-NFκB expression) in AT1R-CHO / RAGE-AT1R-CHO cells; format: cell-based, human; conditions: pre-treatment with mCherry-S391A-RAGE362-404 0.4 ng/ml; FIG. 10G
TRH receptor 1 (TRHR1) = assay: Receptor-HIT BRET, β-arrestin2/Venus with RAGE/Rluc8 and TRH receptor 1; format: cell-based
Excerpt: as §1, §2, §3, §4

CCR4 = molecular target: T4, CCR4 (Homo sapiens, UniProt P51679); assay: Receptor-HIT BRET, β-arrestin2/Venus with RAGE/Rluc8 and CCR4; format: cell-based
T4 construct: expressed in transfected cells; host or cells: HEK293FT, transient
T4 sequence (P51679 whole entry): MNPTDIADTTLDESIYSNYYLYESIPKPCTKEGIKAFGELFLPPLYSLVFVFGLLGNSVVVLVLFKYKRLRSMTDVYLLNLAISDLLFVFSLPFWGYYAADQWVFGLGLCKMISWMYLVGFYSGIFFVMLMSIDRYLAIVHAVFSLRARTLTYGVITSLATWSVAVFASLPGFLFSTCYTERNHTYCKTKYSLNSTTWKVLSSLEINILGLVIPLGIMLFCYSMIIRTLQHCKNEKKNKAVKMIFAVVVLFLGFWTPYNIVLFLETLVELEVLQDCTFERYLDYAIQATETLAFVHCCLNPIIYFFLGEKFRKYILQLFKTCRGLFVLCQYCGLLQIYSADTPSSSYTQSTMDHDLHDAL
T4 sequence (P32121 whole entry partner): as the sequence (P32121 whole entry partner) above
Excerpt: as §1, §2
Plasmids were transiently co-expressed in human embryonic kidney (HEK) 293FT cells and BRET measurements taken at 37° C. using a POLARstar Omega or LUMIstar plate reader (BMG Labtech, Mornington, Victoria, Australia) with 460-490 nm (‘donor emission’) and 520-550 nm (‘acceptor emission’) filters, or a VICTOR Light plate reader (Perkin Elmer, Glen Waverley, Victoria, Australia) with 400-475 nm (‘donor emission’) and 520-540 nm (‘acceptor emission’) filters, or a CLARIOstar plate reader (BMG Labtech, Mornington, Victoria, Australia) with 420-480 nm (‘donor emission’) and 520-620 nm (‘acceptor emission’) filters.
The BRET ratio was calculated by subtracting the ratio of ‘acceptor emission’ over ‘donor emission’ for a cell sample expressing Rluc8-tagged protein alone from the same ratio for a cell sample expressing both Rluc8 and Venus-tagged proteins. Alternatively, the ligand-induced BRET signal was calculated by subtracting the ratio of ‘acceptor emission’ over ‘donor emission’ for a vehicle-treated cell sample from the same ratio for a second aliquot of the same cells treated with agonist.
For BRET kinetic assays, the final pre-treatment reading is presented at the zero time point (time of ligand/vehicle addition). For the saturation assay, fluorescence after light excitation was measured on an EnVision 2102 multi-label plate reader (PerkinElmer, Glen Waverley, Victoria, Australia) using a 485/14 excitation filter, 535/25 emission filter and D505 mirror. […]

## CCO[C@H]1CN(C2CCC(O)(c3ccc4c(c3)OCO4)CC2)C[C@@H]1NC(=O)CNC(=O)c1cccc(C(F)(F)F)c1 (stereo partly drawn) [INCB3344]
CCR2 [1]
  inflammation: suppress inflammation

## Cc1ccc2c(c1)C1(CCN(CCc3nc(-c4ccccc4)oc3C)CC1)OC(=O)N2 [RS-504393]
CCR2 [1]
  inflammation: suppress inflammation

## O=C(O)C[CH2][Ge](=[O])[O][Ge](=[O])[CH2]CC(=O)O [propagermanium, 3-[(2-Carboxyethyl-oxogermyl)oxy-oxogermyl]propanoic acid]
CCR2 [1]
  inflammation: suppress inflammation

## CCL2: monocyte chemotactic protein-1, cognate ligand of CCR2
CCR2 [2]; control
  recruitment of βarrestin2/Venus to CCR2/Rluc8: recruitment
CCR2 [2]; in the presence of CCR2
  recruitment of β-arrestin2/Venus proximal to RAGE/Rluc8: recruitment

## Orexin A (QPLPDCCRQKTCSCRLYELLHGAGNHAAGILTL; not fully specified (residue 1, C-terminus, bridges); cysteine pairing not given here; UniProt O43612 34-66, looked up) [OxA]
Orexin receptor 1 (OxR1); control
  recruitment of βarrestin2/Venus to OxR1/Rluc8: recruitment
Orexin receptor 1 (OxR1); in the presence of OxR1
  recruitment of β-arrestin2/Venus proximal to RAGE/Rluc8: recruitment

## Q379EEEEERAELNQ390 (QEEEEERAELNQ; listed as Homo sapiens) [RAGE379-390]
[3]
  inhibition of RAGE ligand-independent activation of wild-type RAGE by activated AT1R: inhibiting
[4]
  inhibition of RAGE ligand-dependent activation of wild-type RAGE (S100A8/A9): inhibiting
Murine SVEC
  inhibition of Ang II-induced ICAM-1 (acting on wild type RAGE): does not result in a loss of function

## R366A-Q367A-RAGE362-404: mutated RAGE cytosolic tail peptide in which the charged patch is altered (LWQRAARRGEERKAPENQEEEEERAELNQSEEPEAGESSTGGP; cytosolic tail peptide; UniProt Q15109 362-404, looked up, variant R366A Q367A)
RAGE
  overcoming the inhibition of transactivation conferred by mCherry-S391A-RAGE362-404: able to overcome the inhibition

## RAGE370-404: N-truncated RAGE peptide without the charged patch Diaph1 binding domain (GEERKAPENQEEEEERAELNQSEEPEAGESSTGGP; UniProt Q15109 370-404, looked up, fragment)
RAGE
  overcoming the inhibition of transactivation conferred by mCherry-S391A-RAGE362-404: able to overcome the inhibition

## RAGE385-390: N-truncated RAGE construct eliminating both 380 and 384 (RAELNQ; UniProt Q15109 385-390, looked up, fragment)
Murine SVEC
  inhibition of Ang II-induced ICAM-1 (acting on wild type RAGE): loss of the modulatory actions

## Thyrotrophin-releasing hormone [TRH]
TRH receptor 1 (TRHR1); control
  recruitment of βarrestin2/Venus to TRHR1/Rluc8: recruitment
TRH receptor 1 (TRHR1); in the presence of TRHR1
  recruitment of β-arrestin2/Venus proximal to RAGE/Rluc8: weak recruitment

B1: CCL22: chemokine ligand used to activate CCR4 (protein)
chain: GPYGANMEDSVCCRDYVRYRLPLRVVKHFYWTSDSCPRPGVVLLTFRDKEICADPRVPWVKMILNKLSQ
CCR4; control
  recruitment of βarrestin2/Venus to CCR4/Rluc8: recruitment
CCR4; in the presence of CCR4
  recruitment of β-arrestin2/Venus proximal to RAGE/Rluc8: not and Lack of
CCR4; untagged CCR4 co-expressed
  BRET signal between Gαi/Nluc and Gγ2/Venus: observed
